# Assay results taken from US20230374035A1, “RAS INHIBITORS” (Revolution Medicines, Inc., priority 2019, published 2023).
# Like-named read-outs stand apart in the source and are kept apart here.
# What was measured:
# [1] = target: NRAS Q61K (Homo sapiens, UniProt P01111+P62937, Q61K); test: Disruption of BRAF RBD interaction with Ras (FRET / MOA assay); format: biochemical; details: read-out: NRAS Q61K FRET data IC50
# Protocol: (§1) Compound is present in plate wells as a 10-point 3-fold dilution series starting at a final concentration of 30 μM. […] Compounds that facilitate disruption of a Ras:RAF complex are identified as those eliciting a decrease in the TR-FRET ratio relative to DMSO control wells.
# (§2) Note—The following protocol describes a procedure for monitoring disruption of K-Ras G12C (GMP-PNP) binding to BRAF^RBD by a compound of the invention. This protocol may also be executed substituting other Ras proteins or nucleotides.
# (§3) The purpose of this biochemical assay was to measure the ability of test compounds to facilitate ternary complex formation between a nucleotide-loaded K-Ras isoform and Cyclophilin A; the resulting ternary complex disrupts binding to a BRAF^RBD construct, inhibiting K-Ras signaling through a RAF effector. Data is reported as IC50 values.
# (§4) Compound was present in plate wells as a 10-point 3-fold dilution series starting at a final concentration of 30 μM. […] Compounds that facilitate disruption of a K-Ras:RAF complex were identified as those eliciting a decrease in the TR-FRET ratio relative to DMSO control wells.
# [2] = target: NRAS Q61R (Homo sapiens, UniProt P01111+P62937, Q61R); test: as above; format: biochemical
# Protocol: as §1, §2, §3, §4
# [3] = test system: NCI-H358 (K-Ras G12C); test: CellTiter-Glo Cell Viability Assay; format: cell-based; details: Homo sapiens, NCI-H358, 120 h; H358, 5-day treatment
# Protocol: Determination of Cell Viability in RAS Mutant Cancer Cell Lines
# Protocol: CellTiter-Glo® Cell Viability Assay
# Note—The following protocol describes a procedure for monitoring cell viability of K-Ras mutant cancer cell lines in response to a compound of the invention. Other RAS isoforms may be employed, though the number of cells to be seeded will vary based on cell line used.
# Test compounds (132.5 nl) were directly dispensed into the assay plates containing cells. […] On day 5, assay plates and their contents were equilibrated to room temperature for approximately 30 minutes. […] Luminescence was measured using the PerkinElmer Enspire. Data were normalized by the following: (Sample signal/Avg. DMSO)*100. The data were fit using a four-parameter logistic fit.
# [4] = target: KRAS Q61H (Homo sapiens, UniProt P01116+P62937, Q61H); test: Disruption of BRAF RBD interaction with K-Ras (FRET / MOA assay); format: biochemical; details: read-out: KRAS Q61H FRET data IC50
# Protocol: as §1, §2, §3, §4
# [5] = target: NRAS WT (Homo sapiens, UniProt P01111+P62937); test: Disruption of BRAF RBD interaction with Ras (FRET / MOA assay); format: biochemical; details: read-out: NRAS WT FRET data IC50
# Protocol: as §1, §2, §3, §4
# [6] = target: KRAS G12C (Homo sapiens, UniProt P01116+P62937, G12C); test: Disruption of BRAF RBD interaction with K-Ras (FRET / MOA assay); format: biochemical
# Protocol: as §1, §2, §3, §4
# [7] = read-out: NRAS Q61R FRET data IC50
# [8] = read-out: KRAS G12C FRET data IC50
# NRAS Q61R, sequence (P01111 whole entry Q61R): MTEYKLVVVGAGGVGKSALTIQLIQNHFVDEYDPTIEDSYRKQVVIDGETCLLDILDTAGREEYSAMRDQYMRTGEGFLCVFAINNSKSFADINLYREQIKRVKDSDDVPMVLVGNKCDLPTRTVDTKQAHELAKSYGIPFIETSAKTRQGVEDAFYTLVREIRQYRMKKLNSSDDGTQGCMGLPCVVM
# NRAS Q61R, sequence (P62937 whole entry): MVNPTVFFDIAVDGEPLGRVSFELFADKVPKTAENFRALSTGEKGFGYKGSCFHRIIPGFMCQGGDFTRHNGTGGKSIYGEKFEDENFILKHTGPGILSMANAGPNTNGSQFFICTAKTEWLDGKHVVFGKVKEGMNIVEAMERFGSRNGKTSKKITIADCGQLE
# KRAS G12C, sequence (P01116 1-188 isoform P01116-2 G12C): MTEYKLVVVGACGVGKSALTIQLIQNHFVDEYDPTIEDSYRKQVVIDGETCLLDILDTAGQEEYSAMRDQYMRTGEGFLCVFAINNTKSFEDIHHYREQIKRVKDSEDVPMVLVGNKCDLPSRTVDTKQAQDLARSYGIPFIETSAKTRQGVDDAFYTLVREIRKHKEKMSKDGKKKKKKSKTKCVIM
# KRAS G12C, sequence (P62937 whole entry): as the sequence (P62937 whole entry) above
# NRAS Q61K, sequence (P01111 whole entry Q61K): as the sequence (P01111 whole entry Q61R) above, with R61K counted along it
# NRAS Q61K, sequence (P62937 whole entry): as the sequence (P62937 whole entry) above
# KRAS Q61H, sequence (P01116 1-188 isoform P01116-2 Q61H): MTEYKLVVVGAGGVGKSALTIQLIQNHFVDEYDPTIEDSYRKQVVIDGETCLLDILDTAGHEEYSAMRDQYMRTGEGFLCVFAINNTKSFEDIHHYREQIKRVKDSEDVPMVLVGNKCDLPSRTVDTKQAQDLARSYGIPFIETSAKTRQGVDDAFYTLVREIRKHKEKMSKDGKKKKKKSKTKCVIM
# KRAS Q61H, sequence (P62937 whole entry): as the sequence (P62937 whole entry) above
# NRAS WT, sequence (P01111 whole entry): as the sequence (P01111 whole entry Q61R) above, with R61Q counted along it
# NRAS WT, sequence (P62937 whole entry): as the sequence (P62937 whole entry) above
smiles,measurement,setting,value
"CCn1c(-c2cccnc2[C@H](C)OC)c2c3cc(ccc31)-c1csc(n1)C[C@H](NC(=O)[C@H](C(C)C)N(C)C(=O)N1CCN(C(C)=O)CC1)C(=O)N1CCC[C@H](N1)C(=O)OCC(C)(C)C2 (atropisomer, axis not shown) [Compound A291]",IC50,[1],10 to 100 nM
same,IC50,[2]; [7],10 to 100 nM
same,IC50,[3],< 10 nM
"CCn1c(-c2cccnc2[C@H](C)OC)c2c3cc(ccc31)-c1csc(n1)C[C@H](NC(=O)[C@H](C(C)C)N(C)C(=O)N1CCC1)C(=O)N1CCC[C@H](N1)C(=O)OCC(C)(C)C2 (atropisomer, axis not shown) [Compound A399]",IC50,[1],10 to 100 nM
same,IC50,[2]; [7],10 to 100 nM
same,IC50,[3],< 10 nM
CCn1c(-c2cccnc2[C@H](C)OC)c2c3cc(ccc31)-c1cc(O)cc(c1)C[C@H](NC(=O)[C@H](C(C)C)N(C)C(=O)C1(C(=O)O)CC1)C(=O)N1CCC[C@H](N1)C(=O)OCC(C)(C)C2 (racemic) [Compound A150],IC50,[2]; [7],> 10000 nM
same,IC50,[4],1 to 10 µM
CCn1c(-c2cccnc2[C@H](C)OC)c2c3cc(ccc31)-c1cc(O)cc(c1)C[C@H](NS(=O)(=O)CC#N)C(=O)N1CCC[C@H](N1)C(=O)OCC(C)(C)C2 (racemic) [Compound A186],IC50,[1],> 10000 nM
same,IC50,[5],> 10 µM
same,IC50,[2],> 10000 nM
same,IC50,[6],> 10 µM
same,IC50,[4],> 10 µM
CCn1c(-c2cccnc2[C@H](C)OC)c2c3cc(ccc31)-c1cc(O)cc(c1)C[C@H](NS(=O)(=O)C1CC1)C(=O)N1CCC[C@H](N1)C(=O)OCC(C)(C)C2 (racemic) [Compound A196],IC50,[6]; [8],> 10 µM
"CCn1c(-c2cccnc2[C@H](C)OC)c2c3cc(ccc31)-c1csc(n1)C[C@H](NC(=O)[C@H](C(C)C)N(C)C(=O)N1C[C@H]3CCN(C)C[C@H]31)C(=O)N1CCC[C@H](N1)C(=O)OCC(C)(C)C2 (atropisomer, axis not shown) [Compound A517]",IC50,[4],1 to 10 µM
"CCn1c(-c2cccnc2[C@H](C)OC)c2c3cc(ccc31)-c1csc(n1)C[C@H](NC(=O)[C@H](C(C)C)N(C)C(=O)N1C[C@@H]3CCN(C)C[C@@H]31)C(=O)N1CCC[C@H](N1)C(=O)OCC(C)(C)C2 (atropisomer, axis not shown) [Compound A516]",IC50,[4],1 to 10 µM
CCn1c(-c2cccnc2[C@H](C)OC)c2c3cc(ccc31)-c1cc(O)cc(c1)C[C@H](NS(=O)(=O)N1CCC1)C(=O)N1CCC[C@H](N1)C(=O)OCC(C)(C)C2 (racemic) [Compound A189],IC50,[1],> 10000 nM
same,IC50,[5],> 10 µM
same,IC50,[2]; [7],> 10000 nM
same,IC50,[6]; [8],> 10 µM
same,IC50,[4],> 10 µM
CCn1c(-c2cccnc2[C@H](C)OC)c2c3cc(ccc31)-c1cc(O)cc(c1)C[C@H](NS(=O)(=O)c1ccc(OC)cc1OC)C(=O)N1CCC[C@H](N1)C(=O)OCC(C)(C)C2 (racemic) [Compound A198],IC50,[6],> 10 µM
"CCn1c(-c2cc(N3CCN(C)CC3)cnc2[C@H](C)OC)c2c3cc(ccc31)-c1csc(n1)C[C@H](NC(=O)[C@H](C(C)C)N(C)C(=O)N1CC(OC)C1)C(=O)N1CCC[C@H](N1)C(=O)OCC(C)(C)C2 (atropisomer, axis not shown) [Compound A466]",IC50,[1],10 to 100 nM
same,IC50,[2]; [7],10 to 100 nM
same,IC50,[3],< 10 nM
CCn1c(-c2cccnc2[C@H](C)OC)c2c3cc(ccc31)-c1cc(O)cc(c1)C[C@H](NS(=O)(=O)c1ccc(O)cc1)C(=O)N1CCC[C@H](N1)C(=O)OCC(C)(C)C2 (racemic) [Compound A195],IC50,[6]; [8],> 10 µM
CCn1c(-c2cccnc2[C@H](C)OC)c2c3cc(ccc31)-c1cc(cc3nc[nH]c13)C[C@H](NC(=O)[C@H](C(C)C)N(C)C(C)=O)C(=O)N1CCC[C@H](N1)C(=O)OCC(C)(C)C2 (racemic) [Compound A153],IC50,[6]; [8],> 10 µM
"CCn1c(-c2cccnc2[C@H](C)OC)c2c3cc(ccc31)-c1csc(n1)C[C@H](NC(=O)[C@H](C(C)C)N(C)C(=O)N(C)N(C)C)C(=O)N1CCC[C@H](N1)C(=O)OCC(C)(C)C2 (atropisomer, axis not shown) [Compound A454]",IC50,[1],10 to 100 nM
same,IC50,[2]; [7],10 to 100 nM
CCn1c(-c2cccnc2[C@H](C)OC)c2c3cc(ccc31)-c1cc(O)cc(c1)C[C@H](NS(=O)(=O)c1cn(C)c(C)n1)C(=O)N1CCC[C@H](N1)C(=O)OCC(C)(C)C2 (racemic) [Compound A197],IC50,[6]; [8],> 10 µM
